Converted amounts (≈) assume the structure as drawn.
Assays:
[1] = Inhibition of Mycobacterium smegmatis thioredoxin 6xHis-tagged decaprenylphosphoryl-beta-D-ribose2'-epimerase1 overexpressed in Escherichia coli rossetta cells using farnesyl-phosphoryl-beta-D-ribofuranose as substrate; design: species or system Mycolicibacterium smegmatis
[2] = test system: Mycobacterium tuberculosis; experiment: Antimicrobial activity against Mycobacterium tuberculosis H37Rv ATCC 27294 assessed as growth inhibition after 5 days by microdilution method; assay type: functional; details: H37Rv ATCC 27294, 120 h
[3] = AUC in BALB/C mouse infected with Mycobacterium tuberculosis H37Rv ATCC 27294 at 50 to 200 mg/kg, po qd administered for 24 days by LC-MS/MS analysis; assay type: ADME, organism-based; design: dose 50-200 mg/kg, route oral; details: plasma
Cytochrome P450 2D6 = Cytochrome P450 2D6 (Homo sapiens, UniProt P10635); experiment: Inhibition of human CYP2D6; assay type: ADME
Cytochrome P450 2C19 = Cytochrome P450 2C19 (Homo sapiens, UniProt P33261); experiment: Inhibition of human CYP2C19; assay type: ADME
Cytochrome P450 2C9 = Cytochrome P450 2C9 (Homo sapiens, UniProt P11712); experiment: Inhibition of human CYP2C9; assay type: ADME
Cytochrome P450 1A2 = molecular target: T1, Cytochrome P450 1A2 (Homo sapiens, UniProt P05177); experiment: Inhibition of human CYP1A2; assay type: ADME
T1 sequence (P05177 whole entry): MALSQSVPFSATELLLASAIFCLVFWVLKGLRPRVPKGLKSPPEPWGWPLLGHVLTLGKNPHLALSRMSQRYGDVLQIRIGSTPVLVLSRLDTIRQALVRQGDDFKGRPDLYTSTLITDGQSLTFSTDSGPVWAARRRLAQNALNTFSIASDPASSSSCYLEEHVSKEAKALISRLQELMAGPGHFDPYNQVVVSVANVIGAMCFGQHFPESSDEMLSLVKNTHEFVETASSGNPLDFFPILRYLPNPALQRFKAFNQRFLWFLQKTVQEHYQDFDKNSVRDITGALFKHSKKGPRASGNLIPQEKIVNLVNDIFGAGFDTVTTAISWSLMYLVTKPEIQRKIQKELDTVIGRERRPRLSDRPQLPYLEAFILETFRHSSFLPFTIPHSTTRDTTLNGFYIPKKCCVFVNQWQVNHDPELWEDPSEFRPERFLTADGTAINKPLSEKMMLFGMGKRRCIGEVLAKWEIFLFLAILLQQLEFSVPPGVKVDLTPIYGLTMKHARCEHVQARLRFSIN

[4] = Cytotoxicity against human A549 cells assessed as cell viability after 72 hrs by resazurin staining-based fluorimetric analysis; details: read-out: MIC
Cytochrome P450 3A4 = Cytochrome P450 3A4 (Homo sapiens, UniProt P08684); experiment: Inhibition of human CYP3A4; assay type: ADME
[5] = molecular target: Voltage-gated inwardly rectifying potassium channel KCNH2 (Homo sapiens, UniProt Q12809); experiment: Inhibition of human ERG
[6] = test system: Mycobacterium tuberculosis; experiment: Bactericidal activity against hypoxia induced nonreplicating persistent Mycobacterium tuberculosis H37Rv after 7 days; assay type: functional; details: 168 h
[7] = test system: Mycobacterium tuberculosis; experiment: Bactericidal activity against Mycobacterium tuberculosis H37Rv ATCC 27294 after 5 days by microdilution method; assay type: functional; details: H37Rv ATCC 27294, 120 h
[8] = Inhibition of Mycobacterium smegmatis thioredoxin 6xHis-tagged decaprenylphosphoryl-beta-D-ribose2'-epimerase1 C394G mutant overexpressed in Escherichia coli rossetta cells using farnesyl-phosphoryl-beta-D-ribofuranose as substrate; design: species or system Mycolicibacterium smegmatis
[9] = Inhibition of Mycobacterium smegmatis thioredoxin 6xHis-tagged decaprenylphosphoryl-beta-D-ribose2'-epimerase1 Y321H mutant overexpressed in Escherichia coli rossetta cells using farnesyl-phosphoryl-beta-D-ribofuranose as substrate; design: species or system Mycolicibacterium smegmatis
[10] = test system: Mycobacterium tuberculosis; experiment: Antimicrobial activity against Mycobacterium tuberculosis H37Rv ATCC 27294 infected in BALB/C mouse chronic infection model assessed as reduced bacterial burden in lungs at 30 to 100 mg/kg, po administered on day 28 measured after 4 weeks; assay type: functional, Lung; details: dose mg/kg 30-100
[11] = test system: Mycobacterium tuberculosis; experiment: Bactericidal activity against Mycobacterium tuberculosis H37Rv ATCC 27294 infected in human THP1 cells assessed as reduction in CFU at 1 to 4 times MIC by time-kill method; assay type: functional, THP-1
[12] = test system: Mycobacterium tuberculosis; experiment: Bactericidal activity against Mycobacterium tuberculosis H37Rv ATCC 27294 infected in human THP1 cells assessed as reduction in CFU at 1 to 4 times MIC at day 10 by time-kill method; assay type: functional, THP-1
[13] = test system: Mycobacterium tuberculosis; experiment: Bactericidal activity against hypoxia induced nonreplicating persistent Mycobacterium tuberculosis H37Rv assessed as reduction in CFU at 30 times MIC; assay type: functional
Mus musculus = experiment: fT>MIC in BALB/C mouse infected with Mycobacterium tuberculosis H37Rv ATCC 27294 at 50 to 200 mg/kg, po qd after 10 to 24 hrs
[14] = test system: Mycobacterium tuberculosis; experiment: Antimicrobial activity against po dosed Mycobacterium tuberculosis H37Rv ATCC 27294 infected BALB/C mouse chronic infection model assessed as reduced bacterial burden in lungs administered on day 28 measured after 4 weeks; assay type: functional, organism-based; details: Lung
[15] = test system: Mycobacterium tuberculosis; experiment: Antimicrobial activity against po dosed Mycobacterium tuberculosis H37Rv ATCC 27294 infected BALB/C mouse acute infection model assessed as reduced bacterial burden in lungs administered 3 days postinfection measured after 4 weeks; assay type: functional, organism-based; details: Lung
[16] = Unbound fraction in human plasma; assay type: ADME, cell-free
[17] = Kinetic solubility of the compound in phosphate buffer at pH 7.4 after 24 hrs by LC-MS analysis; assay type: physicochemical; details: read-out: Kinetic_solubility
[18] = test system: Mycobacterium tuberculosis; experiment: Antimicrobial activity against Mycobacterium tuberculosis H37Rv ATCC 27294 infected in BALB/C mouse acute infection model assessed as reduced bacterial burden in lungs at 50 to 100 mg/kg, po administered 3 days postinfection measured after 4 weeks; assay type: functional, Lung; details: dose mg/kg 50-100

Cytochrome P450 3A4, sequence (P08684 whole entry): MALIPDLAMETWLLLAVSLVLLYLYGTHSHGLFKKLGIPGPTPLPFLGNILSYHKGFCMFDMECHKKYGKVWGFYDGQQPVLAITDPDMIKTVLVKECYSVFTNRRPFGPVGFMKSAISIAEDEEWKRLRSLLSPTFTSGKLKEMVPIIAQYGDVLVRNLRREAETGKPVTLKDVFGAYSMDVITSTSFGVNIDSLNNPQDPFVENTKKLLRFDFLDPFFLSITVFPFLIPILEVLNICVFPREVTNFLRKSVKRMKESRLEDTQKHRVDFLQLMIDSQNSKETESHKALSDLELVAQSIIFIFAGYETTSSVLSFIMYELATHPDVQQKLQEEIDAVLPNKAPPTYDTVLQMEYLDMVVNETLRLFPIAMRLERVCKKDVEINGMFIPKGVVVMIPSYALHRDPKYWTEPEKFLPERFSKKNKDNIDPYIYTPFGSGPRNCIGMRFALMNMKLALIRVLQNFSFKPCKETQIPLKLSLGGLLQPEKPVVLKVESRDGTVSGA
Voltage-gated inwardly rectifying potassium channel KCNH2, sequence (Q12809 whole entry): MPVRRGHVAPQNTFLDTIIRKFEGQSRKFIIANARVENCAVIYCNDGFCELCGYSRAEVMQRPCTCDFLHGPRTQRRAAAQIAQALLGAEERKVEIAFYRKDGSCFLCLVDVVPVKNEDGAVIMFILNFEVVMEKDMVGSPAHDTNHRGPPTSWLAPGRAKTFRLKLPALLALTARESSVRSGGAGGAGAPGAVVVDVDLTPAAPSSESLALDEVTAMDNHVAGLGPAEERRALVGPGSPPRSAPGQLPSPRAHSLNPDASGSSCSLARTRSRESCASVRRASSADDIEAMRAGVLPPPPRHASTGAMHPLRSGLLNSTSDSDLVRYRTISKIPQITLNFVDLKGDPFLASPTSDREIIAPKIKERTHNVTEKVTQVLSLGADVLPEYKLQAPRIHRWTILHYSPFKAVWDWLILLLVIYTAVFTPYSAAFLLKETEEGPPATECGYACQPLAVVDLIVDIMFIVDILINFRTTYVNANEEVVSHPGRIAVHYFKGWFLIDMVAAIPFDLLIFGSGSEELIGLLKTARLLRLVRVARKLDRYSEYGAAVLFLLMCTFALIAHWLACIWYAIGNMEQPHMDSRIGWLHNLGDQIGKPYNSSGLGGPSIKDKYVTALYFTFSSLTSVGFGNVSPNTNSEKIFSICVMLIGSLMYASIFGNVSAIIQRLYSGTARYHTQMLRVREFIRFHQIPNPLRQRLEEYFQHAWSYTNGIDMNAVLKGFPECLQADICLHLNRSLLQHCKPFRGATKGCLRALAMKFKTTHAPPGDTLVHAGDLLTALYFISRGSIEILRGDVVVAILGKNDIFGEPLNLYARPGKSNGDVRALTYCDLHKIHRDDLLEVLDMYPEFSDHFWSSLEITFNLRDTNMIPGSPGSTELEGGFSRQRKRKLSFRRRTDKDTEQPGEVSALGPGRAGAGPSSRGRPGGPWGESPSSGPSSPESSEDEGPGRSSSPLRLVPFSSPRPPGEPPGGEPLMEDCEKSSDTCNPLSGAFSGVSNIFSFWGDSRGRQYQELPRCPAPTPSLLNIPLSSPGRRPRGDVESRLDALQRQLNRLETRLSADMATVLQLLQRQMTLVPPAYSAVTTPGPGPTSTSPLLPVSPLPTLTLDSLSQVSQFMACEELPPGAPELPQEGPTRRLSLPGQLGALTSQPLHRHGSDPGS
Cytochrome P450 2C19, sequence (P33261 whole entry): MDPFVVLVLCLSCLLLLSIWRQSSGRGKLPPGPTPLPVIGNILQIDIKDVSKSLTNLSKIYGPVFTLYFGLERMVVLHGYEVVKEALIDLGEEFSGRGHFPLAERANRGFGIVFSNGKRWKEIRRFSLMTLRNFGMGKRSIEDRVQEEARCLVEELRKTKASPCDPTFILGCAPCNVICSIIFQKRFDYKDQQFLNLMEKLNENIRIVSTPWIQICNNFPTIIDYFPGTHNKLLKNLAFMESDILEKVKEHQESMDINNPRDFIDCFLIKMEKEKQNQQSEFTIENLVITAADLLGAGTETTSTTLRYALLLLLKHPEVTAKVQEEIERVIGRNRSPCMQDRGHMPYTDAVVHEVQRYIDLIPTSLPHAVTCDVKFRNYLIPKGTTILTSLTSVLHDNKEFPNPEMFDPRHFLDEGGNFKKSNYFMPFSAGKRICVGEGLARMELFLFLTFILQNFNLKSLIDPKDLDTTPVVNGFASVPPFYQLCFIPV
Cytochrome P450 2D6, sequence (P10635 whole entry): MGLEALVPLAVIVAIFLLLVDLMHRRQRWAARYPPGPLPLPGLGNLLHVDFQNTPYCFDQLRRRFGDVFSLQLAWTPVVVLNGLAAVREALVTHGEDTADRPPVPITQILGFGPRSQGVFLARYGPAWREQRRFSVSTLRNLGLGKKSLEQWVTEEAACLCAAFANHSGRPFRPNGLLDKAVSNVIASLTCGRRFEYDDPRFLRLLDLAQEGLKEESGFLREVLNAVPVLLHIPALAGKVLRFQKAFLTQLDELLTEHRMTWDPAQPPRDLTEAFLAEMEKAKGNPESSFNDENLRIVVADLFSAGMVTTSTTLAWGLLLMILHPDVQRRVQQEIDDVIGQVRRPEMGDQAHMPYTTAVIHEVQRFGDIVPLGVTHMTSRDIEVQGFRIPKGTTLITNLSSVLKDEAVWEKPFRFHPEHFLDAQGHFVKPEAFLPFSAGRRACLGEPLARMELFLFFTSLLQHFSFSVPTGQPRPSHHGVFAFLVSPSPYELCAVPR
Cytochrome P450 2C9, sequence (P11712 whole entry): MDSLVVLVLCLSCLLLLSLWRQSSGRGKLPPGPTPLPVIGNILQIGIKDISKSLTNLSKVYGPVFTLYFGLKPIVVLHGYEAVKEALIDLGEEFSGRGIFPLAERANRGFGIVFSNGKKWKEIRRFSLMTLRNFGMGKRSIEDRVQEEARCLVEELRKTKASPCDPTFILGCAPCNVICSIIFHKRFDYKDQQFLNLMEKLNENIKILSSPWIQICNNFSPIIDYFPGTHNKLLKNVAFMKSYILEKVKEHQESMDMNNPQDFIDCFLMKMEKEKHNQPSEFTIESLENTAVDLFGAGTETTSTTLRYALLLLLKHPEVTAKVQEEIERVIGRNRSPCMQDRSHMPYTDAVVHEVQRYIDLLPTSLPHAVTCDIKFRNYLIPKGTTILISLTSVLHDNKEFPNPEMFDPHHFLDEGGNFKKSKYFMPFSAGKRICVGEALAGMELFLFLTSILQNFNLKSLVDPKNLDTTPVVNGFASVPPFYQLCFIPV

Cc1cccnc1Cn1cc(C(=O)NCC2CC2)c2ncccc21
IC50 [1]: 83 nM
MIC [2]: 27 µM (≈ 8.65 µg/mL)

COc1ncnc(Cn2cc(C(=O)NCC3CC3)c3ncccc32)c1C
AUC at 576 h [3]: 200 µM·h
INH (Cytochrome P450 2D6): > 50 µM
INH (Cytochrome P450 2C19): > 50 µM
INH (Cytochrome P450 2C9): > 50 µM
INH (Cytochrome P450 1A2): > 50 µM
MCC at 72 h [4]: > 100 µM
INH (Cytochrome P450 3A4): > 50 µM
INH [5]: > 33 µM

Cc1ccc(Cn2cc(C(=O)NCCc3ccncc3)c3ncccc32)c(C)c1
IC50 [1]: 5500 nM
MIC [2]: > 200 µM

Cc1ccc(Cn2cc(C(=O)NCC3CC3)c3ncccc32)cc1
IC50 [1]: 21 nM
MIC [2]: 13.2 µM (≈ 4.22 µg/mL)

COc1ncnc(Cn2cc(C(=O)NCCO)c3ncc(C)cc32)c1C [TBA-7371]
INH (Cytochrome P450 2D6): > 50 µM
INH (Cytochrome P450 2C19): > 50 µM
INH (Cytochrome P450 2C9): > 50 µM
INH (Cytochrome P450 1A2): > 50 µM
MCC at 72 h [4]: > 100 µM
IC50 [1]: 10 nM
MBC [6]: > 100 µM
MBC [7]: 0.78 µM (≈ 0.277 µg/mL)
MIC [2]: 1.56 µM (≈ 0.554 µg/mL)
INH (Cytochrome P450 3A4): > 50 µM
INH [5]: > 33 µM
IC50 [8]: 10 nM
IC50 [9]: > 10000 nM

COc1ccc(Cn2cc(C(=O)NCC3CC3)c3cnccc32)cc1
IC50 [1]: 1000 nM
MIC [2]: > 200 µM

Cc1ccccc1Cn1cc(C(=O)NCC2CC2)c2ncccc21
MCC at 72 h [4]: 94 µM
INH [5]: 28 µM

COc1ccc(Cn2cc(C(=O)NCC3CC3)c3ncccc32)cc1
IC50 [1]: 7 nM
MIC [2]: 6.25 µM (≈ 2.1 µg/mL)

COc1ncnc(Cn2cc(C(=O)NC[C@H](C)F)c3ncc(C)cc32)c1C
IC50 [1]: 14 nM
MIC [2]: 0.156 µM (≈ 0.0579 µg/mL)

COc1ncnc(Cn2cc(C(=O)NCCF)c3ncccc32)c1C
log10cfu [10]: >1.5
log10cfu [11]: 1
log10cfu [12]: 4
log10cfu [13]: 1.5
%T>MIC (Mus musculus): 25%
AUC at 576 h [3]: 200 µM·h
Activity [14]: Dose-dependent effect
Activity [15]: Dose-dependent effect
INH (Cytochrome P450 2D6): > 50 µM
INH (Cytochrome P450 2C19): > 50 µM
INH (Cytochrome P450 2C9): > 50 µM
INH (Cytochrome P450 1A2): > 50 µM
fraction unbound [16]: 0.098
solubility kinetic at 24 h [17]: 8 µM (≈ 2.75 µg/mL)
MCC at 72 h [4]: > 100 µM
IC50 [1]: 10 nM
MBC [6]: 50 µM (≈ 17.2 µg/mL)
MBC [7]: 1.56 µM (≈ 0.536 µg/mL)
MIC [2]: 1.56 µM (≈ 0.536 µg/mL)
INH (Cytochrome P450 3A4): > 50 µM
INH [5]: > 33 µM
log10cfu [18]: >1.5
IC50 [8]: 15 nM
IC50 [9]: > 10000 nM

Cc1ccc(Cn2cc(C(=O)NCCF)c3ncccc32)c(C)c1
IC50 [1]: 10 nM
MIC [2]: 1.56 µM (≈ 0.508 µg/mL)

COc1ccc(Cn2cc(C(=O)N(C)CC3CC3)c3ncccc32)cc1
IC50 [1]: > 10000 nM
MIC [2]: > 200 µM

COc1cccc(F)c1Cn1cc(C(=O)NCC2CC2)c2ncccc21
IC50 [1]: 6 nM
MIC [2]: 1.56 µM (≈ 0.551 µg/mL)

O=C(NCC1CC1)c1cn(CC2CCOCC2)c2cccnc12
IC50 [1]: 2500 nM
MIC [2]: > 100 µM

Cc1ccc(Cn2cc(C(=O)NCC3CCC(F)(F)CC3)c3ncccc32)c(C)c1
IC50 [1]: 7900 nM
MIC [2]: > 200 µM

COc1ncnc(Cn2cc(C(=O)NC[C@@H](C)F)c3ncccc32)c1C
MIC [2]: 0.78 µM (≈ 0.279 µg/mL)

Cc1cnc2c(C(=O)NCCF)cn(Cc3ncnc(N(C)C)c3C)c2c1
IC50 [1]: 37 nM
MIC [2]: 0.78 µM (≈ 0.289 µg/mL)

Cc1ccccc1Cn1cc(C(=O)NCCN2CCCCC2)c2ncccc21
IC50 [1]: > 10000 nM
MIC [2]: > 200 µM

Cc1c(Cn2cc(C(=O)NCCF)c3ncccc32)ncnc1N(C)C
IC50 [1]: 20 nM
MIC [2]: 6.25 µM (≈ 2.23 µg/mL)

CCc1nc2cc(Cl)ccn2c1C(=O)NCc1ccc(N2CCN(c3ccc(F)cc3)CC2)cc1
IC50 [1]: > 10000 nM
MBC [6]: > 100 µM
MBC [7]: > 200 µM
MIC [2]: 0.017 µM (≈ 0.00836 µg/mL)

COc1ncnc(Cn2cc(C(=O)NCCF)c3ncc(C)cc32)c1C
INH (Cytochrome P450 2D6): > 50 µM
INH (Cytochrome P450 2C19): > 50 µM
INH (Cytochrome P450 2C9): > 50 µM
INH (Cytochrome P450 1A2): > 50 µM
fraction unbound [16]: 0.05
solubility kinetic at 24 h [17]: 4 µM (≈ 1.43 µg/mL)
MCC at 72 h [4]: > 100 µM
IC50 [1]: 3 nM
MBC [6]: 100 µM (≈ 35.7 µg/mL)
MBC [7]: < 0.39 µM
MIC [2]: < 0.39 µM
INH (Cytochrome P450 3A4): > 50 µM
INH [5]: > 33 µM
IC50 [8]: 7 nM
IC50 [9]: > 10000 nM

COCCNC(=O)c1cn(Cc2cc(F)cnc2OC)c2cccnc12
IC50 [1]: 4 nM
MIC [2]: 0.78 µM (≈ 0.28 µg/mL)

COc1ncnc(Cn2cc(C(=O)NCCO)c3ncccc32)c1C
IC50 [1]: 90 nM
MIC [2]: 14 µM (≈ 4.78 µg/mL)
